Reference: PMC3017052, “A Novel Peptide Derived from Human Apolipoprotein E Is an Inhibitor of Tumor Growth and Ocular Angiogenesis” (PLoS ONE, 2011)

Tests used:
HUVEC = experiment: Boyden chamber migration/invasion assay; type: cell-based, human; conditions: Boyden chamber transwell, 50 ng/mL VEGF, 16 hr at 37°C, apoEdp 6–100 µM; read-out: IC50, inhibition of VEGF-induced HUVEC migration and invasion
From the text: The complex process of new blood vessel formation involves migration and invasion of ECs. The inhibition of EC motility through migration and invasion could thus be expected to affect the angiogenic process. To evaluate the ability of apoEdp in blocking VEGF-induced HUVEC migration and invasion, we used a Boyden chamber transwell assay (Materials and Methods). We quantified the invasion of HUVECs across the transwell. Cells which invaded across the membrane were stained with hematoxylin and eosin stain and counted (Fig. 4A–B). […] All values were normalized to cell numbers of transwells exposed to EBM containing 1% FBS without apoEdp and VEGF.
Figure 4 ApoEdp inhibits endothelial cell invasion. About 4×10^4 HUVECs were placed into each insert of Boyden chamber ([…]) (BD Biosciences) of 24-well transwell plate. The bottom chambers were filled with 600 µL medium supplemented with 50 ng/mL VEGF. The top chamber was seeded with approximately 4×10^4 HUVEC cells/well in 100 µL containing different concentrations of apoEdp and incubated at 37°C for 16 hs. HUVEC cells were then fixed and stained with H&E and counted under the microscope. […]
Boyden chamber migration/invasion assays were performed. […] Transwell invaded cells were counted using an inverted microscope. Three independent areas per filter were counted, and the mean ± SEM number of migrated cells was calculated.

MDA-MB-231 cells = type: cell-based, human; conditions: 48 h
Procedure: To confirm that apoEdp affects cell survival, cell viability was determined using the cell titer 96®AQuous One solution cell proliferation kit. ApoEdp treatment of HUVECs induced a dose-dependent inhibition of cell viability (Fig. 1A). […] To determine whether apoEdp suppresses tumor growth by directly affecting tumor cells, we performed a cell viability assay using human breast cancer MDA-MB-231 cell line in vitro and cell titer 96®AQuous One solution cell proliferation kit.
Figure 1 ApoEdp affects HUVEC survival but not MDA-MB-231. A. HUVEC: ApoEdp has a significant effect on VEGF-induced HUVEC viability. Cells were treated with apoEdp at the indicated concentrations and incubated with constant 50 ng/mL VEGF for 48 hr. All values were normalized to cell control of no VEGF and no apoEdp. Cell viability values (mean ± SEM) are expressed as % of the value of the VEGF control. B. MDA-MB-231: ApoEdp has no effect on MDA-MB-231viability. ApoEdp has no significant effect on MDA-MB-231 survival. […] Cell viability values (mean ± SEM) are expressed as % of the value of the control (untreated cells). […]
Cell survival studies were carried out using the CellTiter96 AQueous One solution cell survival assay. […] The cells were incubated for 48 hr and then the AQueous One solution was added to the samples and measured at 490 nm.

[1] = system: VEGF-induced corneal angiogenesis; experiment: Rabbit corneal micropocket assay (VEGF-induced angiogenesis); type: in vivo; conditions: 160 ng VEGF pellet, topical 1% eye drops 50 µL 5 times per day for 5 days, compared to saline treated eyes
Procedure: To study the in vivo anti-angiogenic effect of apoEdp, we assessed its inhibitory effect on VEGF-induced corneal micro-pocket assay in rabbit eye model. The slow release micropellet (500 µm×500 µm) of 0.4 g of Compritol 888 ATO (Gattefosse) combined with 0.1 g of Squalane oil (Sigma) and 20 mg/mL L-α-phosphatidylcholine containing saline or 160 ng of VEGF were surgically implanted in the corneal micropocket created in the avascular area of rabbit cornea (Fig. 5A–B).
Figure 5 ApoEdp inhibits angiogenesis in rabbit corneal micropocket assay. Slow-releasing micro pellets (500 µm×500 µm) containing 160 ng of VEGF were corneally implanted in New Zealand white rabbits (1.5–2.5 kg). […] (A)The area of neovascular response, vessel length, and clock hours of new blood vessel of rabbits in each group were calculated according to the formula Area (mm^2) = C/12×3.1416 [r^2−(r−L)^ 2] where C = the number of clock hours at the limbus involved in the neovascular response, L = length of the longest neovascular pedicle from the limbus onto anterior cornea, and r = radius of the cornea. […]
Corneal micropockets were created with a modified von Graefe cataract knife in eyes of each […] NZ white rabbit. […] The area of neovascular response, vessel length, and clock hours of new blood vessels of the rabbits in each group were calculated according to the formula [55]. […]

Substance: Ac-LRKLRKRLLLRKLRKRLL-NH2 [apoEdp]
- IC50 (HUVEC): ~31.5 µM
- 50% cytotoxic dose (CC50), MDA-MB-231 viability (MDA-MB-231 cells): > 300 µM
- VEGF-induced angiogenesis in rabbit corneal micropocket [1]: significantly inhibited VEGF-induced angiogenesis
